Consider two compounds from US5072032A, “Preparation and use of thiophosphonates and thio-analogues of phosphonoformic acid” (priority 1989, dated 1991).

Like-named read-outs stand apart in the source and are kept apart here.

Data set [1] concerns the target HV-6 polymerase (Human herpesvirus 6A, UniProt P28857). The experiment in a line: Viral polymerase inhibition, HV-6. The data set is classed as biochemical, Herpes Virus 6.
Data set [2] has as its target T1, human DNA polymerase α (Homo sapiens, UniProt P09884).
T1 construct: Mammalian DNA polymerases alpha, beta, gamma, and delta were partially purified from K562 celles; endogenous in cells; host or cells: K562 (chronic myelogenous leukemia tissue culture line)
As to the kind of experiment: Human DNA polymerase inhibition, alpha. The data set is classed as biochemical. The note with it: for remaining activity at 100 µM: read-out: % Control at 100 μM ± S.D. From the text: (§1) Viral DNA polymerases (HSV-1, HSV-2, EBV) were purified by previously published methods (Derce, D. K. F. Bastow, and Y. C. Cheng (1982) J. Boil. Chem. 257:10251-10260; Ostrander, M., and Y. C. Cheng (1980) Biochim. Biophys. Acta 609:232-245; Tan, R. S., A. Datta. and Y. C. Cheng (1982) J. Virol. 44:893-899). These procedures generally included sequential chromatography on DEAE-cellulose. HIV reverse transcriptase was purified by antibody affinity column chromatography as descrbed (Starnes. M. C. and Y. C. Cheng (1989) J. Biol. Chem. 264:7073-7077). The purified enzymes were dialyzed against and stored in 50 mM Tris-HCl (pH 7.5) containing 1 mM each of DTT, EDTA and PMSF plus 30% glycerol. Mammalian DNA polymerases alpha, beta, gamma, and delta were partially purified from K562 celles (chronic myelogenous leukemia tissue culture line). Briefly, washed cell pellets were extracted and passed throgh DEAE-cellulose in the presence of 300 mM KPO4 (pH 7.5) as previously described (Starnes, M. C., and Y. C. Cheng (1987) J. Biol. Chem 282:988-981) to remove DNA. The column flow-through fractions were dialyzed against buffer which contained 50 mM Tris-HCl (pH 7.5), and fractionated on a single-stranded DNA-cellulose column with a 0-1M KCl gradient.
(§2) In accordance with the teaching of the present invention similar enzyme inhibition assays were also conducted with respect to mammalian enzymes, more particularly, human DNA polymerase.

The target of data set [3] is T2, HSV-2 DNA polymerase (Human herpesvirus 2, UniProt P89453).
T2 construct: made in house
As to the kind of experiment: Viral polymerase inhibition, HSV-2. The data set is classed as biochemical.
Description: as §1
Standard assays were run at 37° C. and contained: 50 mM Tris, pH b 8.0, 0.5 mM DTT, 8 mM MgCl2, 100 μg/mL BSA, 150 μg/mL gapped calf thymus DNA, 100 μM each dATP, dCTP, dGTP, 10 .parallel.M [^3 H]-dTTP, and 1-5 .parallel.L enzyme in a final volume of 50 .parallel.L. Modified assays for pH dependence inhibition studies with PFA (1) and α--oxo phosphonates (4 and 5) contained 50 mM Hepes, pH 8.2-6.5, 8 mM MgCl2, 100 mM KCl, 100 μg/ml BSA, 0.5 A260 units/ml of poly(rA).(dT)10, 100 μM [^3 H]dTTP, and 1.5 .parallel.L enzyme in a final volume of 50 μL. Samples were processed as described above.

The subject of data set [4] is uninfected H9 cells. The experiment in a line: Toxicity: cell density of uninfected H9 cultures. It counts as cell-based. The note with it: 3 days. As to the method:
(§3) In addition to testing the activity of TPFA against HIV enzyme, the activity against the virus itself was also determined in accordance with the following protocol. The experimental protocol involved incubatino of H9 lymphocytes (3.5×10^6 cells/ml) in the presence or absence of HIV-1 (HTLV-IIIB) for one hour at 37° C. Cells were washed thoroughly to remove unabsorbed virions and re-suspended at 4×10^5 cells/ml in culture medium. Aliquots (1 ml) were placed in wells of 24 well culture plates containing any equal volume of test compound (diluted in culture medium). After incubation for three days at 37° C., cell density of uninfected cultures was determined to assess toxicity of the test compound. A p24 antigen capture was used to determine the level of HIV infection in HIV treated cultures. The ability of test compounds to inhibit HIV replication was measured at different concentrations relative to infected, untreated cultures. Test compounds were considered to be active if p24 levels were <70% of infected, untreated cultures. Cytotoxicity in uninfect4ed H9 cells was not detected.

The nature of data set [5]: Toxicity: cell density of uninfected H9 cultures. The data set is classed as cell-based. The following applies: human, h9 cells, 3 days, read-out: Cell Survival (%). As to the method: as §3
In data set [6] the test system is HSV-1. The note with it: reported by Hutchinson et al.; cited from earlier work.
The subject of data set [7] is human DNA polymerase δ. The experiment in a line: Human DNA polymerase inhibition, delta. The following applies: Pol δ, "activated" DNA; for IC50: read-out: ID50 (the source's name). The data set is classed as biochemical.
Description: as §1, §2

T1 sequence (P09884 whole entry): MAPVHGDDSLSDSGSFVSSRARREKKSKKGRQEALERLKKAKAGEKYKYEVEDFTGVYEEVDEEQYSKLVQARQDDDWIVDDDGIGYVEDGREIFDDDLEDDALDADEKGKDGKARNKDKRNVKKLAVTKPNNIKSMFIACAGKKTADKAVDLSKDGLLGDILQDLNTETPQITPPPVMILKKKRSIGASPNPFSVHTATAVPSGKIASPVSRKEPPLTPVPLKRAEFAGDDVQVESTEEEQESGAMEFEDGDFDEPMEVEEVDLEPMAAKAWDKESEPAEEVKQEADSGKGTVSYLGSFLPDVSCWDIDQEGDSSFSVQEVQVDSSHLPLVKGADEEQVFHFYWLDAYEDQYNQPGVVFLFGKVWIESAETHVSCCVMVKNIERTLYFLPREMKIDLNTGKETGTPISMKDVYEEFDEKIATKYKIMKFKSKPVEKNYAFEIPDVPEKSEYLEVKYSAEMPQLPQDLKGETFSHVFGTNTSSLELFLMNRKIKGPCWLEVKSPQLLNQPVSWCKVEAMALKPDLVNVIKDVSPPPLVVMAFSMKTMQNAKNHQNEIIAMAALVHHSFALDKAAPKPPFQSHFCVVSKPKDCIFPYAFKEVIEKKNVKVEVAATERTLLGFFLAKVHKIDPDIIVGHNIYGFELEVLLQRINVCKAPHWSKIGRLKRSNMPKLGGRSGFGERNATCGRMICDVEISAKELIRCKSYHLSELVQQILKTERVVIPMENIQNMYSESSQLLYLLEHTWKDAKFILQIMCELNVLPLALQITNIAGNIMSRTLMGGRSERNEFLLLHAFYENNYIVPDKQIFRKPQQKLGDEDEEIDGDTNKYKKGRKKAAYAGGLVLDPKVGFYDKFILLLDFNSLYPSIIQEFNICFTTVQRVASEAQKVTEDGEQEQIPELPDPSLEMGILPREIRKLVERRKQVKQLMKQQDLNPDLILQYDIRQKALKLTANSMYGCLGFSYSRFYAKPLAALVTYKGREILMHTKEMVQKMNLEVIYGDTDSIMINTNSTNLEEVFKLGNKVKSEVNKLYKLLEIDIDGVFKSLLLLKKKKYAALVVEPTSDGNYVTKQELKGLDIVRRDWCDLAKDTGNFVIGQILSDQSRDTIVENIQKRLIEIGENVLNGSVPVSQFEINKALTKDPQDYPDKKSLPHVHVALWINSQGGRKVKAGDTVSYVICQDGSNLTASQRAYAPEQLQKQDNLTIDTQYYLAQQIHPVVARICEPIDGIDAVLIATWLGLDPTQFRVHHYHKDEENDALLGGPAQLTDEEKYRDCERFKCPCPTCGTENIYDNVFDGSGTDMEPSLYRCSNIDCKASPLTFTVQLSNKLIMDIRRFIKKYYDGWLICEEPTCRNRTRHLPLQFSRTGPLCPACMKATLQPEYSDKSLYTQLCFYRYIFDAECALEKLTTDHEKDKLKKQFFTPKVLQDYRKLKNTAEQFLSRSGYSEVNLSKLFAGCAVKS
T1 sequence (Q14181 whole entry partner): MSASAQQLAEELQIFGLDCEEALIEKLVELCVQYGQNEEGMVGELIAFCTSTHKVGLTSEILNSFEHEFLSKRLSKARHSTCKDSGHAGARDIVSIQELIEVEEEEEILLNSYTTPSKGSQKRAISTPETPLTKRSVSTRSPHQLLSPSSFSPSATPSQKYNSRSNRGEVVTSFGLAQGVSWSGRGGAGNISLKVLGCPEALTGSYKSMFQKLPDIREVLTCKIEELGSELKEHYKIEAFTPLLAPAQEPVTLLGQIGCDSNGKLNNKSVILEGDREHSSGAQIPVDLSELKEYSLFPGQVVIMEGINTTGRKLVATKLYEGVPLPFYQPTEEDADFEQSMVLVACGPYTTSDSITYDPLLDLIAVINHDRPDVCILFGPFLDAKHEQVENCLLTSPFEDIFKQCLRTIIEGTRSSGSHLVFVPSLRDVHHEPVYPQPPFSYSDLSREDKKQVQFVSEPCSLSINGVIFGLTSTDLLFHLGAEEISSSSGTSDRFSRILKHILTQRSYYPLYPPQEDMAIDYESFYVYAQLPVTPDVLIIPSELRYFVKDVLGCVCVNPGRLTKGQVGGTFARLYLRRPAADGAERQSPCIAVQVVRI
T1 sequence (P49642 whole entry partner): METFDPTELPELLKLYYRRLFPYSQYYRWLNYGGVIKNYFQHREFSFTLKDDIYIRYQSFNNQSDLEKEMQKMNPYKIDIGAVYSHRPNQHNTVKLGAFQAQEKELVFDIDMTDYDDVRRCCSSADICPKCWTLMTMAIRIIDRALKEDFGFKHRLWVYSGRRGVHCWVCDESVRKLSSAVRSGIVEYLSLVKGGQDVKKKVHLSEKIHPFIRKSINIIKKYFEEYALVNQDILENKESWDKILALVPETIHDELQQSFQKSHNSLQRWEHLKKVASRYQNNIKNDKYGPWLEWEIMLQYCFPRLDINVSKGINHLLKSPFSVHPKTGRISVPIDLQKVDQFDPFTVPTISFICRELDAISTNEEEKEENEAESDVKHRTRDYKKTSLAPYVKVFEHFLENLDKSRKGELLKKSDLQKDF
T1 sequence (P49643 whole entry partner): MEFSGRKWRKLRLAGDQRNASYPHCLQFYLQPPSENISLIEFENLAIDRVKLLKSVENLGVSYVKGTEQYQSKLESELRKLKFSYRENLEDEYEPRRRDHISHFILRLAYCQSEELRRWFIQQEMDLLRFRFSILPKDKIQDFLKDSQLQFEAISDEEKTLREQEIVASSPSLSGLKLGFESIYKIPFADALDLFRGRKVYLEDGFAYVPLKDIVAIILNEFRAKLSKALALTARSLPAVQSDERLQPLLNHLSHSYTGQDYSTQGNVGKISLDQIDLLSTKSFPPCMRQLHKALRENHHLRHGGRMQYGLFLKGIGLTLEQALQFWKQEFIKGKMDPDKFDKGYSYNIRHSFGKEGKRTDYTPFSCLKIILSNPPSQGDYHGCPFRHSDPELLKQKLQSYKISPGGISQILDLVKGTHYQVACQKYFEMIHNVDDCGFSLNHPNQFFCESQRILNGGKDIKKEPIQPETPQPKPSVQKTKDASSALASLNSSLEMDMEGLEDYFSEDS
HV-6 polymerase, sequence (P28857 whole entry): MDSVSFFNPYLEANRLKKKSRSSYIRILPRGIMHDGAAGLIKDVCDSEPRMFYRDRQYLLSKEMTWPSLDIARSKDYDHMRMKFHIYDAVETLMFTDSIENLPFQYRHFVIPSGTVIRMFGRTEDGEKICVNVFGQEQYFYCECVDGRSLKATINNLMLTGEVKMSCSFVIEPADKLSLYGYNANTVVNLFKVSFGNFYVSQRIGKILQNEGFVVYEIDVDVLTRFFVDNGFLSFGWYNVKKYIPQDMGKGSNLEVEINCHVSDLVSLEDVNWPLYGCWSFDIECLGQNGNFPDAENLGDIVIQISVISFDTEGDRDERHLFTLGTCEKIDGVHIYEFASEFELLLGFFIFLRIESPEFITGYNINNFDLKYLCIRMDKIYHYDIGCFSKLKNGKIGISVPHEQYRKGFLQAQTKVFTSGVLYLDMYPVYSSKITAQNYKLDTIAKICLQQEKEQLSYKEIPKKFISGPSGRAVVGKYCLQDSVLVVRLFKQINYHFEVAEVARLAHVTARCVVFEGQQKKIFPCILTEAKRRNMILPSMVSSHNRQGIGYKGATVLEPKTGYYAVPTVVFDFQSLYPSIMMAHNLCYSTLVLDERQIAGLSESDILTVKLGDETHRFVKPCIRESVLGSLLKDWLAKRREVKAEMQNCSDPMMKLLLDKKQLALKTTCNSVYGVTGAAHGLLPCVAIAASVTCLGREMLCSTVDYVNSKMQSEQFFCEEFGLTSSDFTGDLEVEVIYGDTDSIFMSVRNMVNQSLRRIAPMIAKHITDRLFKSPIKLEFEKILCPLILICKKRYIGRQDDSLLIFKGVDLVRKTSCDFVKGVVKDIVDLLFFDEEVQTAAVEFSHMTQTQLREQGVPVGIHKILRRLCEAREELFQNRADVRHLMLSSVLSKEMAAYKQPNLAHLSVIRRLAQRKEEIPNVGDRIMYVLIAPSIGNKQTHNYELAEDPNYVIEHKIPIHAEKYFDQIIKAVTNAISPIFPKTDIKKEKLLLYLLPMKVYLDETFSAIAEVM

For `O=C(O)P(=O)(O)O` [PFA, phosphonoformic acid], the IC50 in data set [1] (HV-6, "activated" DNA, read-out: ID50 (the source's name)) worked out at 1 µM; in data set [2] (Pol α, "activated" DNA, read-out: ID50 (the source's name)), 31 µM; in data set [3] (HSV-2, "activated" DNA, read-out: ID50 (the source's name)), 0.7 µM; in data set [7], 71 µM. Further, in data set [2] (Pol α, 100 μM, "activated" DNA), the remaining activity at 100 µM stood at 16 ± 2%. Moreover, the Toxicity entry in data set [4] (drug conc. 1.9 μg/mL), in data set [4] (drug conc. 7.5 μg/mL), in data set [4] (drug conc. 30 μg/mL) and in data set [4] (drug conc. 120 μg/mL) was “non-T” in each case. Moreover, the viability at 72 h in data set [5] (drug conc. 1.9 μg/mL) came to 98%; in data set [5] (drug conc. 7.5 μg/mL) it was 96%; in data set [5] (drug conc. 30 μg/mL), 92%; in data set [5] (drug conc. 120 μg/mL) it was 102%. Also, the “relative ID50 values with respect to HSV-1” value in data set [6] is recorded as 12. Further, the “% Control at 100 μM ± S.D.” value in data set [7] turned out to be 36 ± 3%.
For the compound `O=C(O)P(O)(O)=S` [TPFA, thiophosphonoformic acid], the IC50 in data set [1] is 70 µM; in data set [2], above 100 µM; in data set [3] it was 11.3 µM; in data set [7], above 100 µM. Besides, the “effectiveness of TPFA relative to PFA” value in data set [1] (Herpes Virus 6 enzyme, ratio of ID50 values of Table I) is “more than seventy times less effective”; in data set [3] (HSV-2 enzyme, ratio of ID50 values of Table I) it was “fifteen to twenty times less effective”. In addition, the “toxicity to the human enzyme relative to PFA (therapeutic index)” value in data set [2] (HIV enzyme and human enzyme, Tables I and II) is “at a minimum, three times less toxic”. Moreover, the “fold less active against the human enzyme than against the HIV enzyme (therapeutic index)” value in data set [2] (human DNA polymerase vs HIV enzyme of Table I) was “greater than 100 fold”. Besides, the remaining activity at 100 µM in data set [2] turned out to be 72 ± 3%. Besides, the Toxicity result in data set [4] (drug conc. 0.1 μg/mL), in data set [4] (drug conc. 0.5 μg/mL), in data set [4] (drug conc. 2 μg/mL), in data set [4] (drug conc. 10 μg/mL), in data set [4] (drug conc. 50 μg/mL) and in data set [4] (drug conc. 200 μg/mL) was “non-T” throughout. Besides, the viability at 72 h worked out at 113% in data set [5] (drug conc. 0.1 μg/mL); 113% in data set [5] (drug conc. 0.5 μg/mL); 110% in data set [5] (drug conc. 2 μg/mL); 104% in data set [5] (drug conc. 10 μg/mL); 93% in data set [5] (drug conc. 50 μg/mL); 84% in data set [5] (drug conc. 200 μg/mL). Besides, the “relative ID50 values with respect to HSV-1” value in data set [6] is given as 9. The “% Control at 100 μM ± S.D.” value in data set [7] turned out to be 69 ± 6%.
